In test [1] the target is T1, cytochrome P450eryF (Saccharopolyspora erythraea, UniProt Q00441). Briefly: lifetime FRET from F7GA to heme. Type of test: binding.
Test [2] addresses T1, cytochrome P450eryF. As to the kind of experiment: ligand-induced spin shift. Type of test: binding.

T1 sequence (Q00441 whole entry): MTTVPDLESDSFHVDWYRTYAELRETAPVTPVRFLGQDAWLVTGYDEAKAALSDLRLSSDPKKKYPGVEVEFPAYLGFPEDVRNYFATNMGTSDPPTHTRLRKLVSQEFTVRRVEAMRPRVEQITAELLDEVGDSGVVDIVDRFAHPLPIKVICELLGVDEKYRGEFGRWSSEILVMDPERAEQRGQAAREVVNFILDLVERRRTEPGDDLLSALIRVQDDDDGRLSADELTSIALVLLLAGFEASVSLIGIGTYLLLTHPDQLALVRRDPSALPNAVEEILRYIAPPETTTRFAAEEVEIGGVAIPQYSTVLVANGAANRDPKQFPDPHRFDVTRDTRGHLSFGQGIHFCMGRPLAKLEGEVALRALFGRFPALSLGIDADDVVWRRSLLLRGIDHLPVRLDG

Usually Kd stands for the equilibrium constant for the complex coming apart. On to `CCCCNc1ccc2c3c(cccc13)C(=O)N(CCCC)C2=O` [F7GA, 2-butyl-6-(butylamino)-1H-benzo[de]isoquinoline-1,3(2H)-dione], for which binding in test [1] was characterised by a dissociation constant (Kd) of 0.14 ± 0.06 µM.
As to `CCN(CC)c1ccc2nc3c4ccccc4c(=O)cc-3oc2c1` [Nile Red], the Kd in test [2] is 3.2 ± 0.2 µM.

(Values after article PMC2662524 (Biochemistry, 2008).)
